In US20100305161A1, “COMBINATIONS OF FUNGICIDAL AZOLES AND PYRION COMPOUNDS” (priority 2007, published 2010):

Tests used:
Test in all cases: Poison Plate Assay, MIC and synergy of combinations
Assay type in all cases: cell-based
[1] = tested on: Ulocladium atrum IMI214699a; conditions: Alternaria atra, 336 h, ppm total active ingredient, growth evaluated after two weeks, 27° C., 70% relative humidity, read-out: MIC-values (minimum inhibitory concentration)
Experimental: (§1) • Test models: Fungi: to each well of a 24-well microtiter plate, 1000 μl of a rich (Potato Dextrose Agar, PDA: 4 g potato infusion, 20 g bacto dextrose and 15 g bacto agar in 1 liter deionised water) or poor (Glucose Agar, GA: 10 g glucose, 1.5 g K2HPO4, 2 g KH2PO4, 1 g (NH4)2SO4, 0.5 g MgSO4 and 12.5 g agar in 1 liter deionised water) medium containing the appropriate combination of the test compounds in one of the concentrations of a dose series is added. The nutrient medium is inoculated with the test fungi by adding a spore/mycelium suspension (10 μl) or a small piece of agar from the margin of an actively growing colony and incubated under dark at 27° C. with 70% relative humidity. The growth of the fungi is evaluated after two weeks. • Bacteria: to each well of a 24-well microtiter plate, 1000 μL Tryptose Agar (TA, 20 g bacto tryptose agar, 5 g sodium chloride, 1 g bacto dextrose and 15 g agar in 1 liter deionised water), containing the test compounds in one of the concentrations of a dose series is added. The nutrient medium is inoculated by adding 10 μl of an actively growing liquid culture of the test bacteria in tryptose broth (without agar), and incubated under dark at 27° C. with 70% relative humidity.
A. G. Nass (1957) “Some aspects of the notions additivity, synergism and antagonism in the simultaneous activity of two antibacterial agents in vitro” Arch. intern. […]

[2] = tested on: Chaetomium globosum ATCC6205; conditions: ATCC6205, 336 h, ppm total active ingredient, growth evaluated after two weeks, 27° C., 70% relative humidity, read-out: MIC-values (minimum inhibitory concentration)
Experimental: as §1
(§2) When the Synergy Index is greater than 1.0, antagonism is indicated. When the SI is equal to 1.0, additivity is indicated.

[3] = tested on: Coriolus versicolor CTB863A; conditions: Trametes versicolor, 336 h, ppm total active ingredient, growth evaluated after two weeks, 27° C., 70% relative humidity, read-out: MIC-values (minimum inhibitory concentration)
Experimental: as §1, §2

SMILES	MIC [1]	MIC [2]	MIC [3]
[O-][n+]1ccccc1SSc1cccc[n+]1[O-] [(I-n) + (II-g) 0 + 100, pyrion disulfide]	1.88 µg/mL		
CCCC1COC(Cn2cncn2)(c2ccc(Cl)cc2Cl)O1 (stereo not shown) [(I-m) + (II-a) 100 + 0, 1-[[2-(2,4-dichlorophenyl)-4-propyl-1,3-dioxolan-2-yl]methyl]-1H-1,2,4-triazole]	33.3 µg/mL	5.01 µg/mL	1.88 µg/mL
